Earlier results, collected in patent US8269040B2, “Derivatives of venlafaxine and methods of preparing and using the same” (Wyeth LLC, priority 1999, dated 2012).

Tests used:
[1] = tested on: norepinephrine uptake; details: in vitro; versus parent compound venlafaxine
[2] = target: dopamine uptake (Rattus norvegicus, UniProt P23977); details: in vitro; versus parent compound venlafaxine
[3] = tested on: serotonin uptake; details: versus the other enantiomer
[4] = tested on: norepinephrine synaptosomal uptake; details: versus the other enantiomer

Chain of dopamine uptake (P23977 whole entry): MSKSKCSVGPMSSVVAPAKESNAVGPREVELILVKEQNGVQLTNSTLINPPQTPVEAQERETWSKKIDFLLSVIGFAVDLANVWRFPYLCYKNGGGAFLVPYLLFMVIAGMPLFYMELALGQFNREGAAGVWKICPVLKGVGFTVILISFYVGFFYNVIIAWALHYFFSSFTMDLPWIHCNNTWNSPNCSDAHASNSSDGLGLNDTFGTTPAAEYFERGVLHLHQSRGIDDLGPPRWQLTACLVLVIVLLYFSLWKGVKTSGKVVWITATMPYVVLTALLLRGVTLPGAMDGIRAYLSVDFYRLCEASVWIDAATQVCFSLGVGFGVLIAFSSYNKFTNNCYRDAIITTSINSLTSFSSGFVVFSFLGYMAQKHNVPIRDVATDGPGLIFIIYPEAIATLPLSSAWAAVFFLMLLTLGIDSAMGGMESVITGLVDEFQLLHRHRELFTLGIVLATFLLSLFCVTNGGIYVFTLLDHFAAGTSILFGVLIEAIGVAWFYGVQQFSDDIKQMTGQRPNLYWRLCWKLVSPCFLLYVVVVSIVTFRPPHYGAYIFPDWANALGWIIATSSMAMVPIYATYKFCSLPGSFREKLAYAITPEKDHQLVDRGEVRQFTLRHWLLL

CN(C)CC(c1ccc(O)cc1)C1(O)CCCCC1 (racemic) [O-desmethylvenlafaxine, (±)-1-[2-(dimethylamino)-1-(4-phenol)ethyl]cyclohexanol]
potency as inhibitor of norepinephrine uptake compared with venlafaxine [1]: more potent inhibitor
half-life relative to that of venlafaxine (compared with venlafaxine): approximately 2.5 times
half-life (t1/2) (in vivo): about 10 hours
potency as inhibitor of dopamine uptake compared with venlafaxine [2]: more potent inhibitor

COc1ccc(C(CN(C)C)C2(O)CCCCC2)cc1 (single isomer, unassigned; (+)) [(+) enantiomer]
selectivity in inhibiting serotonin uptake, comparison of enantiomers [3]: more selective

COc1ccc(C(CN(C)C)C2(O)CCCCC2)cc1 (single isomer, unassigned; (-)) [(−) enantiomer]
potency as inhibitor of norepinephrine synaptosomal uptake, comparison of enantiomers [4]: more potent inhibitor
